Source: patent US10669268B2, “Bicyclic derivatives” (Hoffmann-La Roche Inc., priority 2012, dated 2020)
pIC50: −log10 of the molar value.

Target: ATX (human His-tagged) (Homo sapiens (Human), UniProt Q13822)
Experiment: Human ATX enzyme inhibition assay (fluorescence quenching, MR121 substrate)
Type: biochemical
Conditions: 30 nM ATX, 1 μM MR121 substrate, 30° C., pH 8.0
In short: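 Fluorescence-quenching assay using MR121 substrate at 1 μM final, incubated 15 min at 30 °C. Buffer was 50 mM Tris-HCl pH 8.0 with 140 mM NaCl, 5 mM KCl, 1 mM CaCl2, 1 mM MgCl2 and 0.01% Triton X-100.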

SMILES	pIC50
O=C(OCC1C2CCCCC21)N1C[C@@H]2CN(C(=O)c3ccc4[nH]nnc4c3)C[C@@H]2C1 (stereo partly drawn) [Example 4.13, (3aS,6aR)-5-(1H-benzotriazole-5-carbonyl)-hexahydro-pyrrolo[3,4-c]pyrrole-2-carboxylic acid bicyclo[4.1.0]hept-7-ylmethyl ester]	5.54
O=C(OCc1ccc(C(F)(F)F)cc1)N1C[C@@H]2CN(C(=O)c3ccc4[nH]nnc4c3)C[C@H]2C1 [Example 4.57, (3aS,6aS)-5-(1H-benzotriazole-5-carbonyl)-hexahydro-pyrrolo[3,4-c]pyrrole-2-carboxylic acid 4-trifluoromethyl-benzyl ester]	7.96
O=C(/C=C/N1C[C@@H]2CN(C(=O)[C@@H]3CCc4[nH]nnc4C3)C[C@H]2C1)c1ccc(OC(F)(F)F)cc1 [Example 15.89]	8.15
O=C(/C=C/c1ccc(-c2ccncc2)cc1)N1C[C@@H]2CN(C(=O)c3ccc4[nH]nnc4c3)C[C@H]2C1 [Example 15.79, (E)-1-[(3aR,6aR)-5-(1H-benzotriazole-5-carbonyl)-hexahydro-pyrrolo[3,4-c]pyrrol-2-yl]-3-(4-pyridin-4-yl-phenyl)-prop-2-en-1-one]	6.87
O=C(COc1ccccc1C1CCCO1)N1C[C@@H]2CN(C(=O)c3ccc4[nH]nnc4c3)C[C@H]2C1 (stereo partly drawn) [Example 19.14, 1-[(3aS,6aS)-5-(1H-benzotriazole-5-carbonyl)-hexahydro-pyrrolo[3,4-c]pyrrol-2-yl]-2-[2-(tetrahydro-furan-2-yl)-phenoxy]-ethanone]	6.56
CS(=O)(=O)c1cc(Cl)cc(COC(=O)N2CC[C@@H]3CN(C(=O)c4ccc5[nH]nnc5c4)C[C@@H]3CC2)c1 [Example 4.06, (3aS,8aR)-2-(1H-benzotriazole-5-carbonyl)-octahydro-pyrrolo[3,4-d]azepine-6-carboxylic acid 3-chloro-5-methanesulfonyl-benzyl ester]	7.92
O=C(CCc1ccc(C(F)(F)F)nc1)N1C[C@@H]2CN(C(=O)c3ccc4[nH]nnc4c3)C[C@H]2C1 [Example 15.62]	7.17
O=C(/C=C/c1cc(Cl)cc(Cl)c1)N1CC[C@@H]2CN(C(=O)c3ccc4[nH]nnc4c3)C[C@@H]2CC1 [Example 15.27]	8.70
O=C(OCc1ccc(OC(F)(F)F)cn1)N1C[C@@H]2CN(C(=O)c3ccc4[nH]nnc4c3)C[C@H]2C1 [Example 4.45, (3aS,6aS)-5-(1H-benzotriazole-5-carbonyl)-hexahydro-pyrrolo[3,4-c]pyrrole-2-carboxylic acid 5-trifluoromethoxy-pyridin-2-ylmethyl ester]	8.15
O=C(/C=C/c1ccc(OC(F)(F)F)cc1)N1CC[C@@H]2CN(C(=O)c3ccc4[nH]c(=O)oc4c3)C[C@@H]2CC1 [Example 2.02, 6-{(3aS,8aR)-6-[(E)-3-(4-trifluoromethoxy-phenyl)-acryloyl]-octahydro-pyrrolo[3,4-d]azepine-2-carbonyl}-3H-benzooxazol-2-one]	8.22
O=C(/C=C/c1ccc(OC(F)(F)F)cc1)N1C[C@H]2CCN(C(=O)c3ccc4[nH]nnc4c3)CC[C@H]2C1 [Example 15.10]	7.47
O=C(/C=C/c1ccc(Cl)cc1Cl)N1CC[C@@H]2CN(C(=O)c3ccc4[nH]nnc4c3)C[C@@H]2CC1 [Example 15.30]	7.85
